In brackets after ≈: the same amount, converted by molar mass.
Assays:
Type in all cases: functional
Escherichia coli [1] = assay: Antibacterial activity against ceftazidime-susceptible Escherichia coli by CLSI M7-A7 broth microdilution method
Serratia marcescens [2] = assay: Antibacterial activity against ceftazidime-susceptible Serratia marcescens assessed as resistant isolates by CLSI M7-A7 broth microdilution method
Citrobacter freundii [3] = assay: Antibacterial activity against ceftazidime-susceptible Citrobacter freundii by CLSI M7-A7 broth microdilution method
Enterobacteriaceae [4] = assay: Antibacterial activity against ceftazidime-susceptible Enterobacteriaceae assessed as susceptible isolates by CLSI M7-A7 broth microdilution method
Klebsiella pneumoniae [5] = assay: Antibacterial activity against ceftazidime-susceptible Klebsiella pneumoniae by CLSI M7-A7 broth microdilution method
Haemophilus influenzae [6] = assay: Antibacterial activity against beta lactamase-negative Haemophilus influenzae assessed as resistant isolates by CLSI M7-A7 broth microdilution method
Proteus mirabilis [7] = assay: Antibacterial activity against ceftazidime-susceptible Proteus mirabilis assessed as resistant isolates by CLSI M7-A7 broth microdilution method
Enterobacteriaceae [8] = assay: Antibacterial activity against ceftazidime-nonsusceptible Enterobacteriaceae assessed as resistant isolates by CLSI M7-A7 broth microdilution method
Escherichia coli [9] = assay: Antibacterial activity against ceftazidime-nonsusceptible Escherichia coli assessed as susceptible isolates by CLSI M7-A7 broth microdilution method
Morganella morganii [10] = assay: Antibacterial activity against ceftazidime-susceptible Morganella morganii assessed as susceptible isolates by CLSI M7-A7 broth microdilution method
Klebsiella pneumoniae [11] = assay: Antibacterial activity against ceftazidime-susceptible Klebsiella pneumoniae assessed as susceptible isolates by CLSI M7-A7 broth microdilution method
Enterobacter cloacae [12] = assay: Antibacterial activity against ceftazidime-susceptible Enterobacter cloacae assessed as resistant isolates by CLSI M7-A7 broth microdilution method
Enterobacteriaceae [13] = assay: Antibacterial activity against ceftazidime-nonsusceptible Enterobacteriaceae by CLSI M7-A7 broth microdilution method
Acinetobacter [14] = assay: Antibacterial activity against imipenem-susceptible Acinetobacter assessed as resistant isolates by CLSI M7-A7 broth microdilution method
Acinetobacter [15] = assay: Antibacterial activity against imipenem-susceptible Acinetobacter by CLSI M7-A7 broth microdilution method
Haemophilus influenzae [16] = assay: Antibacterial activity against beta lactamase-negative Haemophilus influenzae by CLSI M7-A7 broth microdilution method
Klebsiella pneumoniae [17] = assay: Antibacterial activity against ceftazidime-nonsusceptible Klebsiella pneumoniae assessed as susceptible isolates by CLSI M7-A7 broth microdilution method
Escherichia coli [18] = assay: Antibacterial activity against ceftazidime-susceptible Escherichia coli assessed as resistant isolates by CLSI M7-A7 broth microdilution method
Klebsiella pneumoniae [19] = assay: Antibacterial activity against ceftazidime-nonsusceptible Klebsiella pneumoniae by CLSI M7-A7 broth microdilution method
Providencia sp. [20] = assay: Antibacterial activity against ceftazidime-susceptible Providencia sp. by CLSI M7-A7 broth microdilution method
Enterobacteriaceae [21] = assay: Antibacterial activity against ceftazidime-susceptible Enterobacteriaceae assessed as resistant isolates by CLSI M7-A7 broth microdilution method
Haemophilus influenzae [22] = assay: Antibacterial activity against beta lactamase-positive Haemophilus influenzae assessed as susceptible isolates by CLSI M7-A7 broth microdilution method
Citrobacter freundii [23] = assay: Antibacterial activity against ceftazidime-nonsusceptible Citrobacter freundii assessed as susceptible isolates by CLSI M7-A7 broth microdilution method
Enterobacter cloacae [24] = assay: Antibacterial activity against ceftazidime-nonsusceptible Enterobacter cloacae by CLSI M7-A7 broth microdilution method
Providencia sp. [25] = assay: Antibacterial activity against ceftazidime-susceptible Providencia sp. assessed as susceptible isolates by CLSI M7-A7 broth microdilution method
Klebsiella pneumoniae [26] = assay: Antibacterial activity against ceftazidime-susceptible Klebsiella pneumoniae assessed as resistant isolates by CLSI M7-A7 broth microdilution method
Enterobacter cloacae [27] = assay: Antibacterial activity against ceftazidime-susceptible Enterobacter cloacae by CLSI M7-A7 broth microdilution method
Citrobacter freundii [28] = assay: Antibacterial activity against ceftazidime-susceptible Citrobacter freundii assessed as susceptible isolates by CLSI M7-A7 broth microdilution method
Enterobacter cloacae [29] = assay: Antibacterial activity against ceftazidime-nonsusceptible Enterobacter cloacae assessed as susceptible isolates by CLSI M7-A7 broth microdilution method
Escherichia coli [30] = assay: Antibacterial activity against ceftazidime-susceptible Escherichia coli assessed as susceptible isolates by CLSI M7-A7 broth microdilution method
Proteus mirabilis [31] = assay: Antibacterial activity against ceftazidime-susceptible Proteus mirabilis assessed as susceptible isolates by CLSI M7-A7 broth microdilution method
Citrobacter freundii [32] = assay: Antibacterial activity against ceftazidime-susceptible Citrobacter freundii assessed as resistant isolates by CLSI M7-A7 broth microdilution method
Haemophilus influenzae [33] = assay: Antibacterial activity against beta lactamase-positive Haemophilus influenzae assessed as resistant isolates by CLSI M7-A7 broth microdilution method
Escherichia coli [34] = assay: Antibacterial activity against ceftazidime-nonsusceptible Escherichia coli by CLSI M7-A7 broth microdilution method
Serratia marcescens [35] = assay: Antibacterial activity against ceftazidime-susceptible Serratia marcescens by CLSI M7-A7 broth microdilution method
Haemophilus influenzae [36] = assay: Antibacterial activity against beta lactamase-negative Haemophilus influenzae assessed as susceptible isolates by CLSI M7-A7 broth microdilution method
Citrobacter freundii [37] = assay: Antibacterial activity against ceftazidime-nonsusceptible Citrobacter freundii by CLSI M7-A7 broth microdilution method
Enterobacter cloacae [38] = assay: Antibacterial activity against ceftazidime-nonsusceptible Enterobacter cloacae assessed as resistant isolates by CLSI M7-A7 broth microdilution method
Providencia sp. [39] = assay: Antibacterial activity against ceftazidime-susceptible Providencia sp. assessed as resistant isolates by CLSI M7-A7 broth microdilution method
Haemophilus influenzae [40] = assay: Antibacterial activity against beta lactamase-positive Haemophilus influenzae by CLSI M7-A7 broth microdilution method
Citrobacter freundii [41] = assay: Antibacterial activity against ceftazidime-nonsusceptible Citrobacter freundii assessed as resistant isolates by CLSI M7-A7 broth microdilution method
Acinetobacter [42] = assay: Antibacterial activity against multidrug-resistant Acinetobacter by CLSI M7-A7 broth microdilution method
Enterobacteriaceae [43] = assay: Antibacterial activity against ceftazidime-nonsusceptible Enterobacteriaceae assessed as susceptible isolates by CLSI M7-A7 broth microdilution method
Enterobacteriaceae [44] = assay: Antibacterial activity against ceftazidime-susceptible Enterobacteriaceae by CLSI M7-A7 broth microdilution method
Klebsiella pneumoniae [45] = assay: Antibacterial activity against ceftazidime-nonsusceptible Klebsiella pneumoniae assessed as resistant isolates by CLSI M7-A7 broth microdilution method
Acinetobacter [46] = assay: Antibacterial activity against imipenem-susceptible Acinetobacter assessed as susceptible isolates by CLSI M7-A7 broth microdilution method
Morganella morganii [47] = assay: Antibacterial activity against ceftazidime-susceptible Morganella morganii assessed as resistant isolates by CLSI M7-A7 broth microdilution method
Acinetobacter [48] = assay: Antibacterial activity against multidrug-resistant Acinetobacter assessed as resistant isolates by CLSI M7-A7 broth microdilution method
Enterobacter cloacae [49] = assay: Antibacterial activity against ceftazidime-susceptible Enterobacter cloacae assessed as susceptible isolates by CLSI M7-A7 broth microdilution method
Proteus mirabilis [50] = assay: Antibacterial activity against ceftazidime-susceptible Proteus mirabilis by CLSI M7-A7 broth microdilution method
Acinetobacter [51] = assay: Antibacterial activity against multidrug-resistant Acinetobacter assessed as susceptible isolates by CLSI M7-A7 broth microdilution method
Serratia marcescens [52] = assay: Antibacterial activity against ceftazidime-susceptible Serratia marcescens assessed as susceptible isolates by CLSI M7-A7 broth microdilution method
Escherichia coli [53] = assay: Antibacterial activity against ceftazidime-nonsusceptible Escherichia coli assessed as resistant isolates by CLSI M7-A7 broth microdilution method
Morganella morganii [54] = assay: Antibacterial activity against ceftazidime-susceptible Morganella morganii by CLSI M7-A7 broth microdilution method

Compound: CCN1CCN(C(=O)N[C@@H](C(=O)N[C@@H]2C(=O)N3[C@@H]2SC(C)(C)[C@@H]3C(=O)O)c2ccccc2)C(=O)C1=O [PIPERACILLIN]
- MIC50 (Escherichia coli [1]): 1 µg/mL (≈ 1.93 µM)
- MIC90 (Escherichia coli [1]): 4 µg/mL (≈ 7.73 µM)
- Activity (Serratia marcescens [2]): 3.4%
- MIC50 (Citrobacter freundii [3]): 2 µg/mL (≈ 3.86 µM)
- MIC90 (Citrobacter freundii [3]): 4 µg/mL (≈ 7.73 µM)
- Activity (Enterobacteriaceae [4]): 97%
- MIC50 (Klebsiella pneumoniae [5]): 2 µg/mL (≈ 3.86 µM)
- MIC90 (Klebsiella pneumoniae [5]): 8 µg/mL (≈ 15.5 µM)
- Activity (Haemophilus influenzae [6]): 0%
- Activity (Proteus mirabilis [7]): 0%
- Activity (Enterobacteriaceae [8]): 38.6%
- Activity (Escherichia coli [9]): 68.3%
- Activity (Morganella morganii [10]): 100%
- Activity (Klebsiella pneumoniae [11]): 97.1%
- Activity (Enterobacter cloacae [12]): 2%
- MIC50 (Enterobacteriaceae [13]): 32 µg/mL (≈ 61.8 µM)
- MIC90 (Enterobacteriaceae [13]): > 64 µg/mL
- Activity (Acinetobacter [14]): 21.3%
- MIC50 (Acinetobacter [15]): 8 µg/mL (≈ 15.5 µM)
- MIC90 (Acinetobacter [15]): > 64 µg/mL
- MIC (Haemophilus influenzae [16]): ≤ 0.03 µg/mL
- MIC50 (Haemophilus influenzae [16]): ≤ 0.03 µg/mL
- MIC90 (Haemophilus influenzae [16]): 0.06 µg/mL (≈ 0.116 µM)
- Activity (Klebsiella pneumoniae [17]): 24.2%
- Activity (Escherichia coli [18]): 2.3%
- MIC50 (Klebsiella pneumoniae [19]): > 64 µg/mL
- MIC90 (Klebsiella pneumoniae [19]): > 64 µg/mL
- MIC50 (Providencia sp. [20]): 2 µg/mL (≈ 3.86 µM)
- MIC90 (Providencia sp. [20]): 16 µg/mL (≈ 30.9 µM)
- Activity (Enterobacteriaceae [21]): 1.6%
- Activity (Haemophilus influenzae [22]): 99%
- Activity (Citrobacter freundii [23]): 24.2%
- MIC50 (Enterobacter cloacae [24]): > 64 µg/mL
- MIC90 (Enterobacter cloacae [24]): > 64 µg/mL
- Activity (Providencia sp. [25]): 92.6%
- Activity (Klebsiella pneumoniae [26]): 0.5%
- MIC50 (Enterobacter cloacae [27]): 2 µg/mL (≈ 3.86 µM)
- MIC90 (Enterobacter cloacae [27]): 4 µg/mL (≈ 7.73 µM)
- Activity (Citrobacter freundii [28]): 100%
- Activity (Enterobacter cloacae [29]): 25.7%
- Activity (Escherichia coli [30]): 96.5%
- Activity (Proteus mirabilis [31]): 100%
- Activity (Citrobacter freundii [32]): 0%
- Activity (Haemophilus influenzae [33]): 1%
- MIC50 (Escherichia coli [34]): 16 µg/mL (≈ 30.9 µM)
- MIC90 (Escherichia coli [34]): > 64 µg/mL
- MIC50 (Serratia marcescens [35]): 2 µg/mL (≈ 3.86 µM)
- MIC90 (Serratia marcescens [35]): 16 µg/mL (≈ 30.9 µM)
- Activity (Haemophilus influenzae [36]): 100%
- MIC50 (Citrobacter freundii [37]): 32 µg/mL (≈ 61.8 µM)
- MIC90 (Citrobacter freundii [37]): > 64 µg/mL
- Activity (Enterobacter cloacae [38]): 54.3%
- Activity (Providencia sp. [39]): 3.7%
- MIC (Haemophilus influenzae [40]): ≤ 0.03 µg/mL
- MIC50 (Haemophilus influenzae [40]): ≤ 0.03 µg/mL
- MIC90 (Haemophilus influenzae [40]): 0.06 µg/mL (≈ 0.116 µM)
- Activity (Citrobacter freundii [41]): 39.4%
- MIC50 (Acinetobacter [42]): > 64 µg/mL
- Activity (Enterobacteriaceae [43]): 43.2%
- MIC50 (Enterobacteriaceae [44]): 2 µg/mL (≈ 3.86 µM)
- MIC90 (Enterobacteriaceae [44]): 4 µg/mL (≈ 7.73 µM)
- Activity (Klebsiella pneumoniae [45]): 62.1%
- Activity (Acinetobacter [46]): 68.1%
- Activity (Morganella morganii [47]): 0%
- Activity (Acinetobacter [48]): 87.5%
- Activity (Enterobacter cloacae [49]): 98%
- MIC (Proteus mirabilis [50]): ≤ 0.5 µg/mL
- MIC50 (Proteus mirabilis [50]): ≤ 0.5 µg/mL
- MIC90 (Proteus mirabilis [50]): 1 µg/mL (≈ 1.93 µM)
- Activity (Acinetobacter [51]): 0%
- Activity (Serratia marcescens [52]): 93.2%
- Activity (Escherichia coli [53]): 17.5%
- MIC (Morganella morganii [54]): ≤ 0.5 µg/mL
- MIC50 (Morganella morganii [54]): ≤ 0.5 µg/mL
- MIC90 (Morganella morganii [54]): 1 µg/mL (≈ 1.93 µM)

Source: ChEMBL document CHEMBL1671626, “In vitro profiling of ceftaroline against a collection of recent bacterial clinical isolates from across the United States” (2008)
